In brackets after ≈: the same amount, converted by molar mass. Several values for one entry are separate records, joined by “and”; a condition that tells them apart may be missing. Equal entries are not always repeated. Where two headings read alike, the source gives them in different places.

Assay [1] concerns S. aureus UC® No. 9213. Description: Murine Assay: in vivo antimicrobial activity, survival of infected mice. More on the design: species or system Staphylococcus aureus. To be noted: survival over six days; for ED50: Staphylococcus aureus, oral treatment one hour and five hours after infection, probit analysis. The method, then:
Antimicrobial activity was tested in vivo using the Murine Assay procedure. Groups of female mice (six mice of 18-20 grams each) were injected intraperitoneally with Staphylococcus aureus bacteria which were thawed just prior to use and suspended in brain heart infusion with 4% brewers yeast (Staphylococcus aureus) or brain heart infusion (Streptococcus species). Antibiotic treatment at six dose levels per drug was administered one hour and five hours after infection by either oral intubation or subcutaneous routes. Survival was observed daily for six days. ED50 values based on mortality ratios were calculated using probit analysis. The subject compounds were compared against vancomycin as a control.

Assay [2] deals with M. tuberculosis 91-2225. Description: In vitro MIC by standard dilution method, M. tuberculosis. The assay is classed as cell-based. To be noted: Mycobacterium tuberculosis, 912225; lowest concentration required to kill the organism or inhibit its growth in vitro; visual observation.
Assay [3] relates to M. tuberculosis (Erdman strain). Description: In vivo antimycobacterial activity, organ counts in infected CD-1 mice. Also noted: species or system Mycobacterium tuberculosis. To be noted: CD-1 mice infected intravenously with 1 x 10^7 M. tuberculosis. As to the method:
The in vivo data for Table 3 was obtained from CD-1 mice infected intravenously with 1 x 10^7 viable M. tuberculosis (Erdman strain). Twenty-four hours later drug treatment was initiated. All the drugs were given by oral gavage twice daily for four weeks. At the end of therapy, viable cell counts were determined from homogenates of spleens and lungs.

The subject of assay [4] is M. avium LPR. In words: In vitro MIC by standard dilution method, M. avium LPR. The following applies: Mycobacterium avium, read-out: MIC M. avium LPR.
Procedure: (§1) The in vitro activity reported in Table 2 was conducted by standard dilution methods known to those skilled in the art. Briefly, serial two-fold dilutions of antibiotic are prepared in a diluent, and a standard volume of mycobacterial growth medium is added to drug aliquot. The medium is inoculated with a standardized mycobacterial cell suspension, and then incubated under appropriate conditions. Following incubation, the Minimal Inhibitory Concentration (MIC) is determined by visual observation. The MIC is defined as the lowest drug concentration (in µg/ml) required to inhibit mycobacterial growth.
Assay [5] has as its system M. avium Lowell Young. Description: In vitro MIC by standard dilution method, M. avium Lowell Young. The following applies: Mycobacterium avium, read-out: MIC M. avium Lowell Young.
Procedure: as §1
The mark [6] stands for this setting: UC9213, 144 h, female mice infected intraperitoneally, read-out: ED50 (mg/kg) Example, PO.
Where [7] appears, read: positive control, 25 mg/kg orally twice daily for four weeks.
Where [8] appears, read: UC9213, po, 144 h, read-out: ED50 (mg/kg) Example, PO, female mice infected intraperitoneally.
Where [9] appears, read: 100 mg/kg by oral gavage twice daily for four weeks.

Take `CC(=O)NC[C@H]1CN(c2ccc(N3CCOCC3)c(F)c2)C(=O)O1` [Example 5]: the ED50 in assay [1] (setting [6]) turned out to be 5.6 mg/kg.

For the compound `O=C(NC[C@H]1CN(c2ccc(N3CCOCC3)c(F)c2)C(=O)O1)C(Cl)Cl` [Example 10], the ED50 in assay [1] (setting [6]) turned out to be 6.8 mg/kg.

Regarding `CC(=O)NC[C@H]1CN(c2ccc(N3CC[S+]([O-])CC3)c(F)c2)C(=O)O1` [Example 3, (S)-N-[[3-[3-fluoro-4-(1-oxothiomorpholin-4-yl)phenyl]-2-oxo-5-oxazolidinyl]methyl]acetamide], in assay [1] (setting [6]), the ED50 is 3.4 mg/kg.

Consider `NNC(=O)c1ccncc1` [ISONIAZID, Isoniazid, reference compound], for which, in assay [2], the MIC (commonly the smallest concentration in the dilution series that meets the test's criterion for growth inhibition) was no more than 0.015 mg/L. In assay [3] (setting [7]), the “Log10 Colony-Forming Units of Mycobacterium tuberculosis Per Organ, Lung” value is 3.81 and the “Log10 Colony-Forming Units of Mycobacterium tuberculosis Per Organ, Spleen” value was determined as 4.36.

On to `CC[C@H]1OC(=O)[C@H](C)[C@@H](O[C@H]2C[C@@](C)(OC)[C@@H](O)[C@H](C)O2)[C@H](C)[C@@H](O[C@@H]2O[C@H](C)C[C@H](N(C)C)[C@H]2O)[C@](C)(O)C[C@@H](C)CN(C)[C@H](C)[C@@H](O)[C@]1(C)O` [AZITHROMYCI N, azithromycin, reference compound], for which the values for the MIC in assay [4] and in assay [5] were 8 mg/L (≈ 10.7 µM) and 4 mg/L (≈ 5.34 µM), respectively.

For `O=CNC[C@H]1CN(c2ccc(N3CCOCC3)c(F)c2)C(=O)O1` [Example 8], in assay [1] (setting [6]), the ED50 was determined as 12.4 mg/kg.

Regarding `CC(=O)NC[C@H]1CN(c2ccc(N3CCSCC3)c(F)c2)C(=O)O1` [Example 1, (S)-N-[[3-[3-fluoro-4-(4-thiomorpholinyl)phenyl]-2-Oxo-5-oxazolidinyl]methyl]acetamide], the ED50 in assay [1] (setting [8]) turned out to be 1.25 mg/kg. Further, the figures for the MIC in assay [2], in assay [4] and in assay [5] were 0.5 mg/L (≈ 1.41 µM), 4 mg/L (≈ 11.3 µM) and 1 mg/L (≈ 2.83 µM), respectively. For the same compound, in assay [3] (setting [9]), the “Log10 Colony-Forming Units of Mycobacterium tuberculosis Per Organ, Lung” value is given as 3.59. In assay [3] (setting [9]), the “Log10 Colony-Forming Units of Mycobacterium tuberculosis Per Organ, Spleen” value worked out at 4.61.

For `CN[C@H](CC(C)C)C(=O)N[C@H]1C(=O)N[C@@H](CC(N)=O)C(=O)N[C@H]2C(=O)N[C@H]3C(=O)N[C@H](C(=O)N[C@H](C(=O)O)c4cc(O)cc(O)c4-c4cc3ccc4O)[C@H](O)c3ccc(c(Cl)c3)Oc3cc2cc(c3O[C@@H]2O[C@H](CO)[C@@H](O)[C@H](O)[C@H]2O[C@H]2C[C@](C)(N)[C@H](O)[C@H](C)O2)Oc2ccc(cc2Cl)[C@H]1O` [Vancomycin, vancomycin, reference compound], the “ED50 (mg/kg) Vancomycin, SC” value in assay [1] (vancomycin control run alongside the example of the same row, female mice infected intraperitoneally, subcutaneous treatment one hour and five hours after infection, 8640 min) is 2.0 mg/kg and 3.9 mg/kg.

Take `CC(=O)NC[C@H]1CN(c2cc(F)c(N3CCOCC3)c(F)c2)C(=O)O1` [Example 4]: the ED50 in assay [1] (setting [8]) is 5.5 mg/kg. For the same compound, in assay [3] (setting [9]), the “Log10 Colony-Forming Units of Mycobacterium tuberculosis Per Organ, Lung” value came out at 5.03 and the “Log10 Colony-Forming Units of Mycobacterium tuberculosis Per Organ, Spleen” value was 5.24.

Take `CC(=O)NC[C@H]1CN(c2ccc(N3CCS(=O)(=O)CC3)c(F)c2)C(=O)O1` [Example 2, (S)-N-[[3-[3-fluoro-4-(1,1-dioxothiomorpholin-4-yl)phenyl]-2-oxo-5-oxazolidinyl]methyl]acetamide]: the ED50 in assay [1] (setting [8]) is 2 mg/kg. Moreover, the MIC in assay [2] was 0.5 mg/L (≈ 1.3 µM); in assay [4], 4 mg/L (≈ 10.4 µM); in assay [5], 2 mg/L (≈ 5.19 µM).

`COC(=O)NC[C@H]1CN(c2ccc(N3CCOCC3)c(F)c2)C(=O)O1` [Example 9]: the ED50 in assay [1] (setting [6]) was determined as 4.4 mg/kg.
